Earlier results in patent US20220175829A1, “Antimicrobial Compositions” (Matoke Holdings Limited, priority 2019, published 2022).

Settings: 20° C. and 1 atm

Compound: O=C(CO)[C@@H](O)[C@H](O)[C@H](O)CO [Fructose]
- solubility: about 375 g/100 g water
